Assay results as given in patent US20260152487A1 (Sitryx Therapeutics Limited, priority 2021, published 2026).
Where two headings read alike, the source gives them in different places.

Molecular target: T1, recombinant human PKM2 (Homo sapiens, UniProt P14618)
T1 construct: His (N); purchased R&D Systems
Assay: Human PKM2 activation assay (Kinase-Glo Plus luminescent detection of generated ATP)
Assay type: biochemical
Details: for Emax: read-out: hPKM2 Emax; for EC50: 4-parameter logistic fit
Method in brief: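 N-His-tagged recombinant hPKM2 ([…]) with PEP and ADP was incubated with compound for 60 min at 26 °C, shaking, in 50 mM imidazole, 50 mM KCl, 7 mM MgCl2, 0.01% Tween20, 0.05% BSA, pH 7.2. ATP produced was read by Kinase-Glo Plus luminescence after 15 min.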

[1] = percentage activation normalised to DMSO vehicle (LOW) and 5 μM TEPP-46 (HIGH)
[2] = recombinant human PKM2 activation, read-out: hPKM2 EC50

T1 sequence (P14618 2-531 limits assumed): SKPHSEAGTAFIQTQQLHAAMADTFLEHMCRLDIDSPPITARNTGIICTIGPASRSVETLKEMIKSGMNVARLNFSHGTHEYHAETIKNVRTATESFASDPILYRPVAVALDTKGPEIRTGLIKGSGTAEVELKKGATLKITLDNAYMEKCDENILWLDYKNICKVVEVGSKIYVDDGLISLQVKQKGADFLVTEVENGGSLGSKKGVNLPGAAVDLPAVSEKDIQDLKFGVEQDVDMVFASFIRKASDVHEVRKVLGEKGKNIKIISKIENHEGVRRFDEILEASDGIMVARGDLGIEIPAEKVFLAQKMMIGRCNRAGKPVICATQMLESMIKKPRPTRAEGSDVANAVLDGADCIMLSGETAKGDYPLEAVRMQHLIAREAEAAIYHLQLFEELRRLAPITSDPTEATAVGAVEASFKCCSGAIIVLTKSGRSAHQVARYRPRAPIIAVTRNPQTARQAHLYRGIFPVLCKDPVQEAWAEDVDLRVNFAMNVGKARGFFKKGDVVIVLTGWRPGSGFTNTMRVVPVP

Row | Compound | Emax [1] | EC50 [2] | hPKM2 Emax [1] | EC50 (hPKM2 EC50, recombinant human PKM2 activation) | Emax
1 | COc1ccc(Cn2ncc3cc(S(=N)(=O)c4ccc(OC(F)F)cc4)ccc3c2=O)cn1 (racemic) [Example 134, 6-(4-(difluoromethoxy)phenylsulfonimidoyl)-2-((6-methoxypyridin-3-yl)methyl)phthalazin-1(2H)-one] | 102% | 88.1 nM |  |  | 
2 | COc1ccc(S(=O)(=O)c2ccc3c(=O)n(Cc4ccncc4O)ncc3c2)cc1 [Example 105, 2-((3-hydroxypyridin-4-yl)methyl)-6-(4-methoxyphenylsulfonyl)phthalazin-1(2H)-one] | 103% | 813 nM |  |  | 
3 | COc1ccc(Cn2ncc3cc(S(=O)(=O)c4csc(C(N)=O)c4)ccc3c2=O)cn1 [Example 118, 4-(2-((6-methoxypyridin-3-yl)methyl)-1-oxo-1,2-dihydrophthalazin-6-ylsulfonyl)thiophene-2-carboxamide] | 93.2% | 60.2 nM |  |  | 
4 | Nc1cccc(Cn2ncc3cc([S+]([O-])c4ccccc4)ccc3c2=O)c1 (centres unmarked) [Example 119, 2-(3-aminobenzyl)-6-(phenylsulfinyl)phthalazin-1(2H)-one] | 98.8% | 348 nM |  |  | 
5 | Nc1cccc(Cn2ncc3cc(S(=O)(=O)c4ccc5c(c4)OCO5)ccc3c2=O)c1 [Example 152, 2-(3-aminobenzyl)-6-(benzo[d][1,3]dioxol-5-ylsulfonyl)phthalazin-1(2H)-one] | 95.2% | 19 nM |  |  | 
6 | Nc1cccc(Cn2ncc3cc(S(=O)(=O)c4ccc5c(c4)CCO5)ccc3c2=O)c1 [Example 143, 2-(3-aminobenzyl)-6-((2,3-dihydrobenzofuran-5-yl)sulfonyl)phthalazin-1(2H)-one] | 104% | 27.7 nM |  |  | 
7 | COc1ccc(Cn2ncc3cc(S(=O)(=O)c4cccc(OC)n4)ccc3c2=O)cn1 [Example 160, 6-(6-methoxypyridin-3-yl)methyl)phthalazin-1(2H)-onemethoxypyridin-2-ylsulfonyl)-2-((6-] | 83.3% | 237 nM |  |  | 
8 | Cn1ccc(S(=O)(=O)c2ccc3c(=O)n(Cc4cccc(OC(F)F)c4)ncc3c2)n1 [Example 198, 2-(3-(difluoromethoxy)benzyl)-6-((1-methyl-1H-pyrazol-3-yl)sulfonyl)phthalazin-1(2H)-one] | 74% | 100 nM |  |  | 
9 | COc1ccc(Cn2ncc3cc(S(=O)(=O)c4ccn5ccnc5c4)ccc3c2=O)cn1 [Example 184, 6-(imidazo[1,2-a]pyridin-7-ylsulfonyl)-2-((6-methoxypyridin-3-yl)methyl)phthalazin-1(2H)-one] | 59.6% | 638 nM |  |  | 
10 | O=c1c2ccc(S(=O)(=O)c3cnn(CC(F)(F)F)c3)cc2cnn1Cc1cc[nH]n1 [Example 361] | 93.2% | 79.4 nM |  |  | 
11 | Cc1onc(C(N)=O)c1Cn1ncc2cc(S(=O)(=O)c3ccccc3)ccc2c1=O [Example 94, 5-methyl-4-((1-oxo-6-(phenylsulfonyl)phthalazin-2(1H)-yl)methyl) isoxazole-3-carboxamide] | 71.3% | 588 nM |  |  | 
12 | COc1ccc(Cn2ncc3cc(S(=O)(=O)c4cccc(F)c4)ccc3c2=O)cn1 [Example 157, 6-((3-fluorophenyl)sulfonyl)-2-((6-methoxypyridin-3-yl)methyl)phthalazin-1(2H)-one] | 87.5% | 123 nM |  |  | 
13 | NC(=O)c1occc1Cn1ncc2cc(S(=O)(=O)c3ccccc3)ccc2c1=O [Example 85, 3-((1-oxo-6-(phenylsulfonyl)phthalazin-2(1H)-yl)methyl)furan-2-carboxamide] | 113% | 71.5 nM |  |  | 
14 | 2-(3-aminobenzyl)-6-((2-mathylthiazol-4-yl)sulfonyl)phthalazin-1(2H)-one [Example 151] |  | 36.5 nM | 92.52% |  | 
15 | COc1ccc(Cn2ncc3cc(S(=N)(=O)c4ccc5c(c4)CCO5)ccc3c2=O)cn1 (racemic) [Example 127, 6-(2,3-dihydrobenzofuran-5-sulfonimidoyl)-2-((6-methoxypyridin-3-yl)methyl)phthalazin-1(2H)-one] | 68.3% | 43.3 nM |  |  | 
16 | COc1ccc(Cn2ncc3cc(S(=O)(=O)c4cn[nH]c4)ccc3c2=O)cn1 [Example 197, 6-((1H-pyrazol-4-yl)sulfonyl)-2-((6-methoxypyridin-3-yl)methyl)phthalazin-1(2H)-one] |  |  |  | 153 nM | 94.5%
17 | COc1ccc(S(=O)(=O)c2ccc3c(=O)n(Cc4ccc(OC)nc4O)ncc3c2)cc1 [Example 109, 2-((2-hydroxy-6-methoxypyridin-3-yl)methyl)-6-(4-methoxyphenylsulfonyl)phthalazin-1(2H)-one] | 96.5% | 141 nM |  |  | 

The next lines start with results.

Row | Emax [1] | EC50 [2] | Compound | hPKM2 Emax [1] | EC50 (hPKM2 EC50, recombinant human PKM2 activation) | Emax
18 | 122% | 282 nM | Cc1cccc(Cn2ncc3cc(S(=O)(=O)c4cnn(C)c4)ccc3c2=O)n1 [Example 204, 6-((1-methyl-1H-pyrazol-4-yl)sulfonyl)-2-((6-methylpyridin-2-yl)methyl)phthalazin-1(2H)-one] |  |  | 
19 | 98.4% | 77 nM | Cc1cc(Cn2ncc3cc(S(=O)(=O)c4csc(C)n4)ccc3c2=O)n[nH]1 [Example 358] |  |  | 
20 | 108% | 241 nM | Cc1cc(Cn2ncc3cc(S(=O)(=O)c4cnn(C(F)F)c4)ccc3c2=O)n[nH]1 [Example 315] |  |  | 
21 | 107% | 109 nM | N=S(=O)(c1cn[nH]c1)c1ccc2c(=O)n(Cc3ccc4c(n3)CCO4)ncc2c1 (centres unmarked) [Example 341] |  |  | 
22 | 108% | 20.6 nM | Cn1cc(S(=O)(=O)c2ccc3c(=O)n(Cc4ccc5occc5n4)ncc3c2)cn1 [Example 330] |  |  | 
23 | 113% | 469 nM | O=c1c2ccc(S(=O)(=O)c3cnccn3)cc2cnn1Cc1cc[nH]n1 [Example 260, 2-((1H-pyrazol-3-yl)methyl)-6-(pyrazin-2-ylsulfonyl)phthalazin-1(2H)-one] |  |  | 
24 | 102% | 157 nM | Cc1cccc(Cn2ncc3cc(S(=O)(=O)c4n[nH]cc4Cl)ccc3c2=O)n1 [Example 319] |  |  | 
25 | 98.2% | 97.6 nM | Cc1cc(Cn2ncc3cc(S(=O)(=O)c4cnn(C(F)F)c4)ncc3c2=O)n[nH]1 [Example 343] |  |  | 
26 | 94.9% | 36.7 nM | COC(C)c1nc(S(=O)(=O)c2ccc3c(=O)n(Cc4ccc5c(n4)CCO5)ncc3c2)cs1 (centres unmarked) [Example 350] |  |  | 
27 | 98.5% | 232 nM | COc1ccc(F)c(Cn2ncc3cc(S(=O)(=O)c4cc[nH]n4)ccc3c2=O)n1 [Example 329] |  |  | 
28 | 91.5% | 162 nM | O=c1c2ccc(S(=O)(=O)c3cc[nH]n3)cc2cnn1Cc1ccn(C(F)F)n1 [Example 328] |  |  | 
29 | 118% | 23.2 nM | Cc1cc(Cn2ncc3cc(S(=O)(=O)c4ccc5c(c4)CCO5)ccc3c2=O)n[nH]1 [Example 209, 6-((2,3-dihydrobenzofuran-5-yl)sulfonyl)-2-((5-methyl-1H-pyrazol-3-yl)methyl)phthalazin-1(2H)-one] |  |  | 
30 | 118% | 88.3 nM | Cc1nc(Cn2ncc3cc(S(=O)(=O)c4cc[nH]n4)ccc3c2=O)ccc1F [Example 303] |  |  | 
31 | 104% | 119 nM | O=c1c2ccc(S(=O)(=O)c3cc[nH]n3)cc2cnn1Cc1cccc(C2CC2)n1 [Example 302] |  |  | 
32 | 104% | 31.2 nM | O=c1c2ccc(S(=O)(=O)c3cc[nH]n3)cc2cnn1Cc1ccc2c(n1)CCO2 [Example 299, 6-((1H-pyrazol-3-yl)sulfonyl)-2-((2,3-dihydrofuro[3,2-b]pyridin-5-yl)methyl)phthalazin-1(2H)-one] |  |  | 
33 | 121% | 43.6 nM | Cc1cc2cc(S(=O)(=O)c3ccc4c(=O)n(Cc5cc[nH]n5)ncc4c3)ccc2o1 [Example 224, 2-((1H-pyrazol-3-yl)methyl)-6-((2-methylbenzofuran-5-yl)sulfonyl)phthalazin-1(2H)-one] |  |  | 
34 |  | 42.9 nM | Cc1[nH]nc(Cn2ncc3cc(S(=O)(=O)c4cc[nH]n4)ccc3c2=O)c1Cl [Example 332] |  |  | 
35 | 104% | 24.5 nM | O=c1c2cnc(S(=O)(=O)c3cn[nH]c3)cc2cnn1Cc1ccc2c(n1)CCO2 [Example 347] |  |  | 
36 | 88.7% | 277 nM | C[C@@H](O)c1cccc(Cn2ncc3cc(S(=O)(=O)c4cnn(C)c4)ccc3c2=O)n1 (single isomer, unassigned) [Example 279] |  |  | 
37 | 106% | 594 nM | Cc1ccc(S(=O)(=O)c2ccc3c(=O)n(Cc4cc[nH]n4)ncc3c2)cn1 [Example 290, 2-((1H-pyrazol-3-yl)methyl)-6-((6-methylpyridin-3-yl)sulfonyl)phthalazin-1(2H)-one] |  |  | 
38 | 98.4% | 217 nM | COc1ccc(S(=O)(=O)c2ccc3c(=O)n(Cc4ccn(CCO)n4)ncc3c2)cn1 [Example 285, 2-((1-(2-hydroxyethyl)-1H-pyrazol-3-yl)methyl)-6-((6-methoxypyridin-3-yl)sulfonyl)phthalazin-1(2H)-one] |  |  | 
39 | 104% | 155 nM | COc1ccc(S(=O)(=O)c2ccc3c(=O)n(Cc4c(O)ccnc4O)ncc3c2)cc1 [Example 255, 2-((2,4-dihydroxypyridin-3-yl)methyl)-6-(4-methoxyphenylsulfonyl)phthalazin-1(2H)-one] |  |  | 
40 | 68% | 216 nM | O=c1c2ccc(S(=O)(=O)c3ccccc3)cc2cnn1Cc1cnc2ccccn12 [Example 261, 2-(imidazo[1,2-a]pyridin-3-ylmethyl)-6-(phenylsulfonyl)phthalazin-1(2H)-one] |  |  | 
41 | 92.5% | 45.3 nM | Cc1[nH]nc(Cn2ncc3cc(S(=O)(=O)c4cnn(C(F)F)c4)ccc3c2=O)c1Cl [Example 349] |  |  | 
42 | 102% | 352 nM | Cn1cc(S(=O)(=O)c2cc3cnn(Cc4cc[nH]n4)c(=O)c3cc2NCCO)cn1 [Example 268, 2-((1H-pyrazol-3-yl)methyl)-7-((2-hydroxyethyl)amino)-6-((1-methyl-1H-pyrazol-4-yl)sulfonyl)phthalazin-1(2H)-one] |  |  | 
